Measured values taken from US12251370B2, “Small molecule inhibitors of the BfrB:Bfd interaction” (BOARD OF SUPERVISORS OF LOUISIANA STATE UNIVERSITY AND …, priority 2018, dated 2025).
In brackets after ≈: the same amount, converted by molar mass. Several values for one entry are separate records, joined by “and”; a condition that tells them apart may be missing. Equal values may be shown once. Read-outs that look alike come from different tables or passages of the source.

Tests used:
A. baumannii [1] = experiment: Growth curves and IC50 determination in A. baumannii; format: cell-based, Acinetobacter baumannii (AB5075); settings: AB5075, modified M63 media, 48 well-plates
Protocol: (§1) Pre-cultures (5 mL LB media) were grown for 12 h at 37° C. and 220 rpm in 50 mL conical tubes (VWR International, PA) covered with an air permeable membrane. The cells were then centrifuged at 4,000 rpm for 10 min, the resultant cell pellets washed twice in M63 media and then diluted in M63 media to OD600=0.01. Stock solutions (100 mM) of analog in DMSO were prepared weekly and stored at 4° C. Prior to initiating experiments in 96 well plates, the analog stock solution was serially diluted to make 10 mM or 1 mM working solutions in DMSO. A small volume of the appropriate working solution was transferred to a glass vial, diluted with DMSO to 30 μL, and then diluted to a final volume of 1.5 mL with pre-culture cell suspension with an OD600=0.01. The resultant cell suspension (200 μL) was transferred to a clear-bottom polystyrene 96 well plate (VWR), and incubated at 35° C. and 205 cpm for 13 h in an Epoch 2 microplate spectrophotometer (Biotek Instruments, Inc., Vermont). The growth curve in the presence of Ciprofloxacin was obtained in the same plate. […] MIC determinations were carried out using standard broth microdilution methods in 48 well plates and modified M63 media. Cells were incubated at 35° C.
This idea was tested with A. baumanni AB5075, a highly virulent isolate, which has been proposed as a model strain for the evaluation of pathogenesis and antimicrobial treatments.^66.

A. baumannii [2] = experiment: MIC determination by broth microdilution in A. baumannii; format: cell-based, Acinetobacter baumannii (AB5075); settings: modified M63 media, 35° C.; for MIC: Acinetobacter baumannii
Protocol: as §1, with “M63” left out, “A small volume of the appropriate working solution was transferred to a glass vial, diluted with DMSO to 30 μL, and then diluted to a final volume of 1.5 mL with pre-culture cell suspension with an OD600=0.01.” left out

A. baumannii cells = experiment: CAS assay for siderophore detection; format: cell-based, Acinetobacter baumannii; settings: analog 64 μM; modified M63 media; 35° C.
Protocol: These experiments were carried out in 48 well-plates in a Synergy H1 microplate spectrophotometer as described above for obtaining A. baumannii growth curves. Cultures treated with analog KM-5-25 at 64 μM final concentration were used in these experiments. The cell-free supernatants (25 μL) collected after the 24-h growth curves had been completed was mixed with 175 μL of the CAS assay reagent (10 mM hexadecyltrimethyl ammonium bromide (HDTMA), 1 mM FeCl3·6H2O, 2 mM azurol S-CAS in 145 mM PIPES buffer, pH 5.9).^64 The absorbance at 630 nm was read in an Epoch2 microplate spectrophotometer after 2 h and used to calculate the percent siderophore (PSU) with the aid of equation 3,^65 where Ar is the absorbance of the reference solution (CAS solution and un-inoculated media) and As is the absorbance of the sample (CAS solution and cell-free supernatant). PSU values were normalized to CFU/mL.
The results are illustrated in FIGS. 8A and 8B with observations made when A. baumannii cells are cultured at 35° C. in modified M63 media treated with analogs KM-5-25 and KM-5-35.

apo-BfrB = apo-BfrB (Pseudomonas aeruginosa, UniProt Q9HY79); experiment: Fluorescence polarization binding assay, apo-BfrB titrated into fluorescent ligand; settings: fluorescence polarization and intensity near emission λmax
apo-BfrB, sequence (Q9HY79 whole entry): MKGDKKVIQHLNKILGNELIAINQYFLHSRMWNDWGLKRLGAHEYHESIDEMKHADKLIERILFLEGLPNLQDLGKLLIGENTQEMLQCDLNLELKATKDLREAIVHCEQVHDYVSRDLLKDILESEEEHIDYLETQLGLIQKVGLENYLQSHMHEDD
Protocol: Prior to testing the effect that the 4-substituted isoindoline-1,3-dione derivatives might exert on P. aeruginosa cells, the strength of their interaction with BfrB was evaluated in vitro with a fluorescence polarization assay developed based on the intrinsic fluorescence of the isoindoline-1,3-dione moiety.

P. aeruginosa [3] = experiment: Growth curves and IC50 determination in P. aeruginosa; format: cell-based, Pseudomonas aeruginosa (PAO1); settings: M63 media, growth % from OD600 at 13 h, three independent experiments
Protocol: as §1

P. aeruginosa [4] = settings: literature value; cited from earlier work
BfrB [5] = target: T1, BfrB (Pseudomonas aeruginosa, UniProt Q9HY79); experiment: STD NMR fragment screening with Bfd competitive displacement; format: binding; settings: STD NMR with Bfd as specific competitor
T1 sequence (Q9HY79 whole entry, the tested form may be a part): as the sequence (Q9HY79 whole entry) above
Source text: Fragment Library Screening Using Saturation Transfer Difference (STD) NMR Spectroscopy
Structural information obtained from the BfrB-Bfd complex was used to design a fragment library to screen for molecules that bind BfrB at the Bfd-binding site. […] In addition, fragments capable of π-π stacking were included with both electron rich and deficient aromatic rings. To screen the library in search of fragments that bind BfrB at the Bfd-binding site a competition assay was developed that utilizes saturation transfer difference (STD) NMR spectroscopy. This technique is ideally suited to screen fragments that bind to the large BfrB (˜440 kDa) because protein resonance assignments are not necessary and very low protein concentrations are required. In addition, the large rotational correlation time (τc) of BfrB enhances spin diffusion and therefore saturation transfer within the protein and to the ligand.^51 Two solutions were prepared for each fragment: a solution of the fragment alone, and a solution of the fragment and BfrB. Three spectra were obtained for each fragment. The ^1H spectrum of the fragment alone was used to determine fragment integrity and solubility, the ^1H spectrum of the fragment in the presence of BfrB was used to corroborate that fragment integrity and solubility is not affected by BfrB, and the STD spectrum of the solution containing the fragment and BfrB was used to assess fragment binding. This strategy uncovered 18 compounds that bind BfrB. The specificity criterion for fragment binders, however, is that these bind BfrB specifically at the Bfd-binding site. To eliminate non-specific binders, a displacement strategy was implemented that utilizes Bfd as a specific competitor. For this purpose, a STD spectrum was acquired from a solution containing fragment, BfrB and Bfd. […] These fragments were advanced to the next stage, which was focused on uncovering structural information of fragment binding.

P. aeruginosa PAO1 = experiment: Effect of analogs on the potency of fluoroquinolone antibiotics, strain PAO1; format: cell-based, Pseudomonas aeruginosa; settings: data not shown
Protocol: The combined treatment was carried out similarly, ensuring that the final concentration of DMSO was 2%.

[6] = system: wild type P. aeruginosa cells; experiment: Growth response of wild type cells to analog (viable cell count); format: cell-based, Pseudomonas aeruginosa; settings: M63 + 4 μM Fe; 15 h post-inoculation; viable cells vs untreated control
Protocol: (§2) To this end, wild type and ΔbfrB cells were cultured in M63 media supplemented with 4 μM Fe, in the presence of different concentrations of analog. […] Since BfrB is not essential, it is likely that the cell can compensate for the absence of the iron storage protein. […] The sudden onset of toxicity observed in the second phase, which is not observed with the wild type cells, is probably related to off-target effects that expose a fitness vulnerability caused by the absence of BfrB. Consequently, it is possible to conclude that the dose-dependent growth defect elicited by 11 or 16 on wild type P. aeruginosa cells is largely a consequence of the interaction between the small molecule inhibitors and BfrB in the bacterial cell. This issue was investigated in additional detail (see below) by probing the phenotypic and biochemical response of wild type cells treated with the small molecule inhibitors.

[7] = system: ΔbfrB P. aeruginosa cells; experiment: Growth response of bfrB deletion mutant cells to analog; format: cell-based, Pseudomonas aeruginosa; settings: M63 + 4 μM Fe; 15 h post-inoculation; viable cells vs untreated control
Protocol: as §2

BfrB [8] = target: T1, BfrB; settings: holo-BfrB; previously reported; read-out: Kd, interaction between Bfd and BfrB (holo); cited from earlier work
BfrB [9] = target: T1, BfrB; experiment: Bfd association with BfrB in solution; format: binding; settings: apo-BfrB; read-out: Kd, interaction between Bfd and apo-BfrB

O=C1NC(=O)c2c(NCc3cc(Cl)ccc3O)cccc21 [KM-5-25, 4-((5-Chloro-2-hydroxybenzyl)amino)isoindoline-1,3-dione]
IC50 (A. baumannii [1]; Acinetobacter baumannii): 64 µM | MIC (A. baumannii [2]): 128 µM (≈ 38.7 µg/mL) | siderophores produced relative to untreated control, normalized to CFU/mL (A. baumannii cells): approximately 2 fold | Kd (apo-BfrB): 2.9 ± 1.9 µM | IC50 (P. aeruginosa [3]; Pseudomonas aeruginosa): 64 µM

O=C(O)c1cn(C2CC2)c2cc(N3CCNCC3)c(F)cc2c1=O [ciprofloxacin]
reported MIC (P. aeruginosa [4]): 0.25 µg/mL

O=C1NC(=O)c2c(NCCCc3cc(F)ccc3O)cccc21 [JAG-005-006, 4-((3-(5-Fluoro-2-hydroxyphenyl)propyl)amino)isoindoline-1,3-dione]
MIC (A. baumannii [2]): 128 µM (≈ 40.2 µg/mL) | IC50 (P. aeruginosa [3]; Pseudomonas aeruginosa): 48 µM

Cc1cc(NS(=O)(=O)c2ccc(N)cc2)no1 [4-amino-N—(S-methylisoxazol-3-yl)benzenesulfonamide]
fragment binding to BfrB, STD signal displaced by Bfd (BfrB [5]): bind at the Bfd-binding site

COc1cc(O)ccc1CCCNc1cccc2c1C(=O)NC2=O [Analog 15]
IC50 (P. aeruginosa [3]; Pseudomonas aeruginosa): 227 µM

O=C1NC(=O)c2c(NCCCc3ccc(O)cc3O)cccc21 [Analog 14]
IC50 (P. aeruginosa [3]; Pseudomonas aeruginosa): 143 µM

4-((3-(4-Chloro-2-hydroxyphenyl)propyl)amino)isoindoline-1,3-dione [KM-5-66]
IC50 (A. baumannii [1]): < 32 µM | A. baumannii MIC (A. baumannii [2]): 80 to 128 µM | IC50 (P. aeruginosa [3]): 48 µM

O=C1NC(=O)c2c(NCCCc3ccc(O)cc3)cccc21 [Analog 13]
IC50 (P. aeruginosa [3]; Pseudomonas aeruginosa): 201 µM

CCn1cc(C(=O)O)c(=O)c2cc(F)c(N3CCNCC3)cc21 [norfloxacin]
reported MIC (P. aeruginosa [4]): 0.9 µg/mL

CC(=O)c1ccc2c(c1)NC(=O)CO2 [6-acetyl-2H-benzo[b][1,4]oxazin-3(4H)-one]
fragment binding to BfrB, STD signal displaced by Bfd (BfrB [5]): bind at the Bfd-binding site

CS(=O)(=O)Nc1ccc(C#N)cc1 [N-(4-cyanophenyl)methanesulfonamide]
fragment binding to BfrB, STD signal displaced by Bfd (BfrB [5]): bind at the Bfd-binding site

gentamycin [reference compound]
enhancement of antibacterial activity in combination with the small molecule inhibitors of the BfrB-Bfd interaction (P. aeruginosa PAO1): no enhancement

O=C1NC(=O)c2c(NCc3cc(Br)ccc3O)cccc21 [KM-5-35, 4-((5-Bromo-2-hydroxybenzyl)amino)isoindoline-1,3-dione]
IC50 (A. baumannii [1]; Acinetobacter baumannii): 64 µM | MIC (A. baumannii [2]): 80 to 128 µM (≈ 27.8 to 44.4 µg/mL) | siderophores produced relative to untreated control, normalized to CFU/mL (A. baumannii cells): approximately 2 fold | Kd (apo-BfrB): 2 ± 1.4 µM | IC50 (P. aeruginosa [3]; Pseudomonas aeruginosa): 48 µM

NC[C@H]1O[C@H](O[C@H]2[C@H](O)[C@@H](O[C@H]3O[C@H](CO)[C@@H](O)[C@H](N)[C@H]3O)[C@H](N)C[C@@H]2N)[C@H](N)C[C@@H]1O [tobramycin, reference compound]
enhancement of antibacterial activity in combination with the small molecule inhibitors of the BfrB-Bfd interaction (P. aeruginosa PAO1): no enhancement

O=C1NC(=O)c2cc(O)ccc21 [5-hydroxyisoindoline-1,3-dione]
fragment binding to BfrB, STD signal displaced by Bfd (BfrB [5]): bind at the Bfd-binding site

O=C1NC(=O)c2c(NCc3ccccc3O)cccc21 [Analog 11, 4-((2-Hydroxybenzyl)amino)isoindoline-1,3-dione]
growth response of wild type cells [6]: monophasic dose-dependent growth defect | growth response of ΔbfrB mutant cells [7]: biphasic growth response | IC50 (P. aeruginosa [3]; Pseudomonas aeruginosa): 258 µM

CC(C)(O/N=C(\C(=O)N[C@@H]1C(=O)N2C(C(=O)[O-])=C(C[n+]3ccccc3)CS[C@H]12)c1csc(N)n1)C(=O)O [ceftazidime, reference compound]
enhancement of antibacterial activity in combination with the small molecule inhibitors of the BfrB-Bfd interaction (P. aeruginosa PAO1): no enhancement

CC(=O)Nc1ccc(Br)cc1 [N-(4-bromophenyl)acetamide]
fragment binding to BfrB, STD signal displaced by Bfd (BfrB [5]): bind at the Bfd-binding site

O=C1NC(=O)c2c(NCc3ccc(Br)cc3O)cccc21 [JAG-005-030, 4-((4-Bromo-2-hydroxybenzyl)amino)isoindoline-1,3-dione]
IC50 (A. baumannii [1]; Acinetobacter baumannii): 48 µM | MIC (A. baumannii [2]): 80 to 128 µM (≈ 27.8 to 44.4 µg/mL)

Nc1cccc2c1C(=O)NC2=O [Analog 8, reference compound]
P. aeruginosa IC50 (P. aeruginosa [3]): Not active

O=C1NC(=O)c2c(NCc3cccc(O)c3)cccc21 [Analog 12, 4-((3-Hydroxybenzyl)amino)isoindoline-1,3-dione]
P. aeruginosa IC50 (P. aeruginosa [3]): Not active

Brc1cccc(-c2nnn[nH]2)c1 [5-(3-bromophenyl)-1H-tetrazole]
fragment binding to BfrB, STD signal displaced by Bfd (BfrB [5]): bind at the Bfd-binding site

B1: Bfd: bacterioferritin-associated ferredoxin, cognate partner of the iron storage protein BfrB (protein, UniProt Q9HY80 1-73, looked up)
Bacterioferritin-associated …: MYVCLCQGVTDNQIRDAIYEGCCSYREVREATGVGTQCGKCACLAKQVVRETLNDLQSAQPVPAFGTTAFVAA
Kd (BfrB [8]): 3.4 µM and 3 µM and ~3 µM | Kd (BfrB [9]): 3.1 µM
